Test results taken from patent US20230140216A1, “COMBINATION THERAPY FOR TREATING MPS1” (GAIN THERAPEUTICS SA, priority 2020, published 2023).

Columns and labels:
[1] = target: T1, Recombinant human α-L-iduronidase protein (Homo sapiens, UniProt P35475); assay: Differential scanning fluorimetry (DSF) thermal stabilization; assay type: binding; conditions: ΔTm class;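 note: Classes count stabilization of α-L-iduronidase despite the GALC label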
T1 construct: purchased R&D
T1 sequence (P35475 28-653): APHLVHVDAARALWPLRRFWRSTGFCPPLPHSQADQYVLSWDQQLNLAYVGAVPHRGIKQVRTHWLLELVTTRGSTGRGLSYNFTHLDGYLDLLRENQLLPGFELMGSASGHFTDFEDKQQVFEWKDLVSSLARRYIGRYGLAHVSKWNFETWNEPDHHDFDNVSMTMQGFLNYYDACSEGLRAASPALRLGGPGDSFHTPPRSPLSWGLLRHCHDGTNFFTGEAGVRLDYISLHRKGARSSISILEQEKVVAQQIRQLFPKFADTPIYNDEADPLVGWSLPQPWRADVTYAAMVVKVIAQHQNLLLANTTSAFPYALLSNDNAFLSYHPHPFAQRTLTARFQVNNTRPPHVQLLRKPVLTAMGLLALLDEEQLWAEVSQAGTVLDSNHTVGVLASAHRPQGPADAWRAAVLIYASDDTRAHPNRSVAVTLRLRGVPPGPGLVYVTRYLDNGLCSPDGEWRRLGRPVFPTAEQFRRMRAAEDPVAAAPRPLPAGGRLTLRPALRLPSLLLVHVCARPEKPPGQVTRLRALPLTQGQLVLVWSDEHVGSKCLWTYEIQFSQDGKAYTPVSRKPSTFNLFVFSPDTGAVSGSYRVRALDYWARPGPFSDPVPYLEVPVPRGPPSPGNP
Description: The capacity of Compounds of the Disclosure to stabilize α-L-iduronidase was assessed by differential scanning fluorimetry technique. The thermal denaturation of purified human native enzyme was monitored in the presence of the extrinsic fluorescent probe SYPRO Orange (Sigma-Aldrich, St. Louis, MO). The tested compounds were dissolved in 100% DMSO and diluted into the protein buffer to achieve final concentrations of 1% DMSO.
Recombinant human α-L-iduronidase protein (purchased from R&D) 12.5 µL of 1.5 µM in 100 mM Hepes 20 mM MgCl2 pH 7 (protein final concentration 0.75 µM) with Sypro Orange 10X and 12.5 µl of the different compound solutions were dispensed into 96-well PCR-plates. The intensity of SYPRO Orange fluorescence after a systematic increase of temperature was monitored in the Roche LightCycler® 480 II device (Roche Diagnostics).
The capacity to stabilize α-L-iduronidase is denoted as follows: • ΔTm GALC > 1 is shown as A; • ΔTm GALC between 0.5 and 1 is shown as B; • ΔTm GALC between 0.1 and 0.5 is shown as C; and • ΔTm GALC less than 0.1 is shown as D.

[2] = target: T2, ALDURAZYME (laronidase, IDUA) (Homo sapiens, UniProt P35475); assay: Denaturation prevention assay with ALDURAZYME; assay type: biochemical; conditions: 30 µM compound, pH 7, 37° C.
T2 construct: purchased ALDURAZYME®
T2 sequence (P35475 26-653 limits assumed): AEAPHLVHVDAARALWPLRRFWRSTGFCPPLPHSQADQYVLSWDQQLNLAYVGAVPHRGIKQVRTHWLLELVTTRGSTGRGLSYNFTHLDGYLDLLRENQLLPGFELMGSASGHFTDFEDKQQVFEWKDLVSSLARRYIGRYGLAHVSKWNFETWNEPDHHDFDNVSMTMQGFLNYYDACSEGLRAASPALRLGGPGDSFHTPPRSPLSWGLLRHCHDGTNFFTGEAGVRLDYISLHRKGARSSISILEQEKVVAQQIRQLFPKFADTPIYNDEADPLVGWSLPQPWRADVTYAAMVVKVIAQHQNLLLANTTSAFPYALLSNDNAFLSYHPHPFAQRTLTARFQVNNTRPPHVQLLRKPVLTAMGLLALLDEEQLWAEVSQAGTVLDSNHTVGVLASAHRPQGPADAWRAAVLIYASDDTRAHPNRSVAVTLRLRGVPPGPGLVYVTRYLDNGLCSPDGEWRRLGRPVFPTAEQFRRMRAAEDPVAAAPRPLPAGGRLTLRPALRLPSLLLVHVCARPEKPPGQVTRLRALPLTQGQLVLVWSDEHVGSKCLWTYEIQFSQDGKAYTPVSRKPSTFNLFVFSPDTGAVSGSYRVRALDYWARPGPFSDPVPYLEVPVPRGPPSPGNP
Description: Briefly, recombinant human α-L-iduronidase protein (obtained in the Institute of Biotechnology and Biomedicine in the UAB, Bellaterra, Spain) was combined at a final concentration of 1 µM with 5X of SYPRO Orange and 30 µM of the corresponding compound in a final reaction volume of 25 µL in 100 mM Hepes 20 mM MgCl2 pH 7 buffer. Reactions were incubated at 37° C. and SYPRO Orange fluorescence intensity was monitored at the indicated time points using Glomax® Discover Microplate Reader from Promega (Madison, WI, USA).
Compounds of Examples 8, 39, 40, 54, and 72 were also tested as described above, except that ALDURAZYME® was used instead of the recombinant human α-L-iduronidase protein (obtained in the Institute of Biotechnology and Biomedicine in the UAB, Bellaterra, Spain).

[3] = commercially available Examples 8-37

Row | Compound | DSF Activity range ([1]; synthetized Examples 38-94) | DSF Activity range [1, 3] | also measured
1 | CCCN(CC(=O)N(C)c1ccccc1Cl)Cc1nc2cc(C)sc2c(=O)[nH]1 [Example 54] | B (ΔTm GALC between 0.5 and 1 is shown as B) | – | prevention of IDUA denaturation [2]: prevent IDUA denaturation
2 | Cc1csc2c(=O)[nH]c(CN(C)CC(=O)N3CCc4ccccc43)nc12 [Example 39] | B (ΔTm GALC between 0.5 and 1 is shown as B) | – | prevention of IDUA denaturation [2]: prevent IDUA denaturation
3 | Cc1cc2nc(CN(CC(=O)N(C)c3ccccc3Cl)C3CC3)[nH]c(=O)c2s1 [Example 47] | D (ΔTm GALC less than 0.1 is shown as D) | – | –
4 | Cc1ccc2nc(CN(C)CC(=O)N3CCc4ccccc43)[nH]c(=O)c2c1 [Example 81] | C (ΔTm GALC between 0.1 and 0.5 is shown as C) | – | –
5 | CN(CC(=O)N(C)c1ccccc1Cl)Cc1nc(O)c2cnn(-c3ccccc3)c2n1 [Example 1, N-(2-chlorophenyl)-2-(((4-hydroxy-1-phenyl-1H-pyrazolo[3,4-d]pyrimidin-6-yl)methyl)(methyl)amino)-N-methylacetamide] | – | – | DSF Activity range ([1]; synthetized Examples 1-7): A (ΔTm GALC > 1 is shown as A)
6 | CN(CC(=O)N1CCCc2ccccc21)Cc1nc2ccccc2c(=O)[nH]1 [Example 29, 2-(((2-(3,4-dihydroquinolin-1(2H)-yl)-2-oxoethyl)(methyl)amino)methyl)quinazolin-4(3H)-one] | – | B (ΔTm GALC between 0.5 and 1 is shown as B) | –
7 | CCN(CC(=O)NC(C)(C)C)Cc1nc2ccsc2c(=O)[nH]1 [Example 13, N-(tert-butyl)-2-(ethyl((4-oxo-3,4-dihydrothieno[3,2-d]pyrimidin-2-yl)methyl)amino)acetamide] | – | D (ΔTm GALC less than 0.1 is shown as D) | –
8 | CN(CC(=O)Nc1ccc(Cl)c(Cl)c1)Cc1nc2c(cnn2C)c(=O)[nH]1 [Example 30, N-(3,4-dichlorophenyl)-2-(methyl((1-methyl-4-oxo-4,5-dihydro-1H-pyrazolo[3,4-d]pyrimidin-6-yl)methyl)amino)acetamide] | – | B (ΔTm GALC between 0.5 and 1 is shown as B) | –
9 | CCN(CC(=O)Nc1ccccc1Cl)Cc1nc2ccccc2c(=O)[nH]1 [Example 22, N-(2-chlorophenyl)-2-(ethyl((4-oxo-3,4-dihydroquinazolin-2-yl)methyl)amino)acetamide] | – | C (ΔTm GALC between 0.1 and 0.5 is shown as C) | –
10 | CCN(CC(=O)Nc1c(Cl)cccc1Cl)Cc1nc2ccsc2c(=O)[nH]1 [Example 8, N-(2,6-dichlorophenyl)-2-(ethyl((4-oxo-3,4-dihydrothieno[3,2-d]pyrimidin-2-yl)methyl)amino)acetamide] | – | A (ΔTm GALC > 1 is shown as A) | prevention of IDUA denaturation [2]: prevent IDUA denaturation
11 | CN(CC(=O)N1CCc2ccccc21)Cc1nc2cc(F)ccc2c(=O)[nH]1 [Example 72, 7-fluoro-2-(((2-(indolin-1-yl)-2-oxoethyl)(methyl)amino)methyl)quinazolin-4(3H)-one] | B (ΔTm GALC between 0.5 and 1 is shown as B) | – | prevention of IDUA denaturation [2]: prevent IDUA denaturation
12 | Cc1ccc2nc(CN(C)CC(=O)N(C)c3ccc(Cl)c(Cl)c3)[nH]c(=O)c2c1 [Example 89, 2-(N-((3,4-dihydro-6-methyl-4-oxoquinazolin-2-yl)methyl)-N-methylamino)-N-(3,4-dichlorophenyl)-N-methylacetamide] | B (ΔTm GALC between 0.5 and 1 is shown as B) | – | –
13 | CCN(CC(=O)N(C)c1c(Cl)cccc1Cl)Cc1nc2c(C)csc2c(=O)[nH]1 [Example 49, N-(2,6-dichlorophenyl)-2-(ethyl((7-methyl-4-oxo-3,4-dihydrothieno[3,2-d]pyrimidin-2-yl)methyl)amino)-N-methylacetamide] | C (ΔTm GALC between 0.1 and 0.5 is shown as C) | – | –
14 | Cc1ccc(NC(=O)CN(C)Cc2nc3c(cnn3C)c(=O)[nH]2)cc1 [Example 31, 2-(methyl((1-methyl-4-oxo-4,5-dihydro-1H-pyrazolo[3,4-d]pyrimidin-6-yl)methyl)amino)-N-(p-tolyl)acetamide] | – | C (ΔTm GALC between 0.1 and 0.5 is shown as C) | –
15 | Cc1ccc2c(=O)[nH]c(CN(CC(=O)N(C)c3ccccc3Cl)C3CC3)nc2c1 [Example 83] | D (ΔTm GALC less than 0.1 is shown as D) | – | –
16 | Cc1ccc2c(=O)[nH]c(CN(C)CC(=O)N(C)c3cccc(F)c3)nc2c1 [Example 87, 2-(N-((3,4-dihydro-7-methyl-4-oxoquinazolin-2-yl)methyl)-N-methylamino)-N-(3-fluorophenyl)-N-methylacetamide] | D (ΔTm GALC less than 0.1 is shown as D) | – | –
17 | CN(CC(=O)N(C)c1cccc(F)c1)Cc1nc2ccc(F)cc2c(=O)[nH]1 [Example 74] | B (ΔTm GALC between 0.5 and 1 is shown as B) | – | –
18 | CCCN(CC(=O)N1CCc2ccccc21)Cc1nc2ccsc2c(=O)[nH]1 [Example 15, 2-(((2-(indolin-1-yl)-2-oxoethyl)(propyl)amino)methyl)thieno[3,2-d]pyrimidin-4(3H)-one] | – | D (ΔTm GALC less than 0.1 is shown as D) | –
19 | CCN(CC(=O)Nc1ccccc1C)Cc1nc2ccccc2c(=O)[nH]1 [Example 20, 2-(ethyl((4-oxo-3,4-dihydroquinazolin-2-yl)methyl)amino)-N-(o-tolyl)acetamide] | – | B (ΔTm GALC between 0.5 and 1 is shown as B) | –
20 | CN(CC(=O)N1CCCC1)Cc1nc2c(cnn2C)c(=O)[nH]1 [Example 35, 1-methyl-6-((methyl(2-oxo-2-(pyrrolidin-1-yl)ethyl)amino)methyl)-1,5-dihydro-4H-pyrazolo[3,4-d]pyrimidin-4-one] | – | B (ΔTm GALC between 0.5 and 1 is shown as B) | –
21 | CN(CC(=O)Nc1ccccc1Cl)Cc1nc2ccsc2c(=O)[nH]1 [Example 12, N-(2-chlorophenyl)-2-(methyl((4-oxo-3,4-dihydrothieno[3,2-d]pyrimidin-2-yl)methyl)amino)acetamide] | – | B (ΔTm GALC between 0.5 and 1 is shown as B) | –
22 | CCCN(CC(=O)N(C)c1ccccc1Cl)Cc1nc2c(C)csc2c(=O)[nH]1 [Example 44] | B (ΔTm GALC between 0.5 and 1 is shown as B) | – | –
23 | CN(CC(=O)N(C)c1ccccc1Cl)Cc1nc2cc(F)ccc2c(=O)[nH]1 [Example 63] | B (ΔTm GALC between 0.5 and 1 is shown as B) | – | –
24 | CN(CC(=O)Nc1cccc2ccccc12)Cc1nc2ccccc2c(=O)[nH]1 [Example 18, 2-(methyl((4-oxo-3,4-dihydroquinazolin-2-yl)methyl)amino)-N-(naphthalen-1-yl)acetamide] | – | A (ΔTm GALC > 1 is shown as A) | –
25 | CCN(CC(=O)N(C)c1nc(C)cs1)Cc1nc2ccc(F)cc2c(=O)[nH]1 [Example 67, 2-(ethyl((6-fluoro-4-oxo-3,4-dihydroquinazolin-2-yl)methyl)amino)-N-methyl-N-(4-methylthiazol-2-yl)acetamide] | B (ΔTm GALC between 0.5 and 1 is shown as B) | – | –
